From US10441663B2, “Methods for treating cancer” (Bicycle Therapeutics Limited, priority 2016, dated 2019)
*1 amine or outer side, *2 acyl side, *3 side chain or, on linkers, in order; H or OH if unused. Where a SMILES comes first, the peptide text is derived from it. Bridges are numbered along the chain shown (N, C = ends). [ ]: non-standard residue; d: D form. The star is where a group is joined. X1 = COc1cc2cc(c1Cl)N(C)C(=O)C[C@H](OC(=O)[C@H](C)N(C)C(=O)CCSSC(C)CCC(=O)*)[C@]1(C)O[C@H]1[C@H](C)[C@@H]1C[C@@](O)(NC(=O)O1)[C@H](OC)/C=C/C=C(\C)C2; 1Nal = N[C@@H](Cc1cccc2ccccc12)C(=O)O; TBMB = c1c(C[*:1])cc(C[*:3])cc1C[*:2]; Tle = CC(C)(C)[C@H](N)C(=O)O; βAla = NCCC(=O)O; Sar = CNCC(=O)O

Tested on: HT1080 xenograft
Assay: In vivo efficacy of BT1718 in HT1080 xenograft
Design: species or system Mus Musculus; key to Best response at 10 mg/kg: CR complete response; PR partial response
Protocol: The objective of this study was to evaluate the in vivo anti-tumor efficacy of BT1718in treatment of HT1080, NCI-H292, NCI-H1975, MDA-MB-231, HCC1806, RPMI2650, HCT-15, HT-29 and SNU-16 xenograft in BALB/c nude mice.
The HT1080, NCI-H292, NCI-H1975, MDA-MB-231, HCC1806, RPMI2650, HCT-15, HT-29 and SNU-16 tumor cells were maintained in vitro as a monolayer culture in medium supplemented with 10% heat inactivated fetal bovine serum at 37° C. in an […]. The tumor cells will be routinely subcultured twice weekly by trypsin-EDTA treatment. The cells growing in an exponential growth phase will be harvested and counted for tumor inoculation.
Mouse was inoculated subcutaneously at the right flank with tumor cells for tumor development. The animals were randomized and treatment was started when the average tumor reaches certain volume for the efficacy study, the inoculating cell amounts and starting tumor size were shown as below in Table 9. The test article administration and the animal numbers in each group were shown in the experimental design in Table 10.
All the procedures related to animal handling, care and the treatment in the study were performed according to the guidelines of the Association for Assessment and Accreditation of Laboratory Animal Care (AAALAC). At the time of routine monitoring, the animals were daily checked for any effects of tumor growth and treatments on normal behavior such as mobility, food and water consumption (by looking only), body weight gain/loss (body weights were measured every day), eye/hair matting and any other abnormal effect as stated in the protocol. Death and observed clinical signs were recorded on the basis of the numbers of animals within each subset.
The major endpoint was to see if the tumor growth could be delayed or mice could be cured. Tumor size was measured three times weekly in two dimensions using a caliper, and the volume was expressed in mm^3 using the formula: V=0.5 a×b^2 where a and b are the long and short diameters of the tumor, respectively. The tumor size was then used for calculations of T/C value. The T/C value (in percent) is an indication of antitumor effectiveness; T and C are the mean volumes of the treated and control groups, respectively, on a given day.
TGI was calculated for each group using the formula: TGI (%)=[1−(Ti−T0)/(Vi−V0)]×100; Ti is the average tumor volume of a treatment group on a given day, T0 is the average tumor volume of the treatment group on the day of treatment start, Vi is the average tumor volume of the vehicle control group on the same day with Ti, and V0 is the average tumor volume of the vehicle group on the day of treatment start.
Summary statistics, including mean and the standard error of the mean (SEM), are provided for the tumor volume of each group at each time point.
Statistical analysis of difference in tumor volume among the groups was conducted on the data obtained at the best therapeutic time point after the final dose.
A one-way ANOVA was performed to compare tumor volume among groups, and when a significant F-statistics (a ratio of treatment variance to the error variance) was obtained, comparisons between groups were carried out with Games-Howell test. All data were analyzed using Prism. P<0.05 was considered to be statistically significant.

## COc1cc2cc(c1Cl)N(C)C(=O)C[C@H](OC(=O)[C@H](C)N(C)C(=O)CCSSC(C)CCC(=O)NCCC(=O)N(C)CC(=O)N(C)CC(=O)N(C)CC(=O)N(C)CC(=O)N(C)CC(=O)N(C)CC(=O)N(C)CC(=O)N(C)CC(=O)N(C)CC(=O)N(C)CC(=O)N[C@@H](C)C(=O)N[C@H]1CSCc3cc4cc(c3)CSC[C@H](NC(=O)[C@@H](C)NC(=O)[C@H](Cc3cccc5ccccc35)NC(=O)[C@H](CCC(=O)O)NC(=O)[C@H](CC(N)=O)NC(=O)[C@@H](C)NC1=O)C(=O)N[C@@H](CCC(=O)O)C(=O)N[C@@H](CC(=O)O)C(=O)N[C@@H](Cc1ccccc1)C(=O)N[C@@H](Cc1ccc(O)cc1)C(=O)N[C@@H](CC(=O)O)C(=O)N[C@@H](C(C)(C)C)C(=O)N[C@H](C(N)=O)CSC4)[C@]1(C)O[C@H]1[C@H](C)[C@@H]1C[C@@](O)(NC(=O)O1)[C@H](OC)/C=C/C=C(\C)C2 (stereo partly drawn) [BT1718] ({X1-βAla}-[Sar][Sar][Sar][Sar][Sar][Sar][Sar][Sar][Sar][Sar]AC[dA]NE[1Nal][dA]CEDFYD[Tle]C-NH2; linker 12-18-25 via TBMB (inferred))
3 mg/kg biw
  animals with transient response on re-dosing: 1/3
3 mg/kg biw re-dosing
  animals that ultimately re-grew despite dosing: 3/3
10 mg/kg biw, suspension period of 2 months
  re-growth during dosing suspension: did not re-grow
10 mg/kg qw, re-growth in weeks 3-4 of re-dosing
  response on re-dosing of the relapsed animal: transient response
1 mpk biw, day 0
  Body Weight: 22.7 ± 0.5 g
  Tumor Volume: 177 ± 6 mm^3
1 mpk biw, day 2
  Body Weight: 22.2 ± 0.4 g
  Tumor Volume: 265 ± 33 mm^3
1 mpk biw, day 4
  Body Weight: 22.3 ± 0.2 g
  Tumor Volume: 669 ± 107 mm^3
1 mpk biw, day 7
  Body Weight: 22.2 ± 0.2 g
  Tumor Volume: 1009 ± 156 mm^3
1 mpk biw, day 9
  Body Weight: 21.5 ± 0.2 g
  Tumor Volume: 1318 ± 146 mm^3
1 mpk biw, day 11
  Body Weight: 20.1 ± 0.1 g
  Tumor Volume: 1526 ± 160 mm^3
1 mpk biw, day 14
  Body Weight: 19.4 ± 0.0 g
  Tumor Volume: 1650 ± 218 mm^3
1 mpk qw, day 0
  Body Weight: 22.5 ± 0.6 g
  Tumor Volume: 178 ± 4 mm^3
1 mpk qw, day 2
  Body Weight: 22.2 ± 0.5 g
  Tumor Volume: 257 ± 26 mm^3
1 mpk qw, day 4
  Body Weight: 22.6 ± 0.5 g
  Tumor Volume: 627 ± 112 mm^3
1 mpk qw, day 7
  Body Weight: 22.3 ± 0.3 g
  Tumor Volume: 934 ± 176 mm^3
1 mpk qw, day 9
  Body Weight: 22.2 ± 0.3 g
  Tumor Volume: 1253 ± 182 mm^3
1 mpk qw, day 11
  Body Weight: 20.5 ± 0.3 g
  Tumor Volume: 1593 ± 251 mm^3
1 mpk qw, day 14
  Body Weight: 19.6 ± 0.2 g
  Tumor Volume: 1814 ± 320 mm^3
3 mpk biw, day 0
  Body Weight: 23.1 ± 0.6 g
  Tumor Volume: 178 ± 15 mm^3
3 mpk biw, day 2
  Body Weight: 22.8 ± 0.9 g
  Tumor Volume: 196 ± 16 mm^3
3 mpk biw, day 4
  Body Weight: 22.5 ± 0.7 g
  Tumor Volume: 100 ± 10 mm^3
3 mpk biw, day 7
  Body Weight: 23.4 ± 0.8 g
  Tumor Volume: 39 ± 8 mm^3
3 mpk biw, day 9
  Body Weight: 24 ± 1.1 g
  Tumor Volume: 18 ± 10 mm^3
3 mpk biw, day 11
  Body Weight: 24.5 ± 0.9 g
  Tumor Volume: 8 ± 8 mm^3
3 mpk biw, day 14
  Body Weight: 24.7 ± 0.9 g
  Tumor Volume: 3 ± 3 mm^3
3 mpk qw, day 0
  Body Weight: 22.6 ± 0.3 g
  Tumor Volume: 179 ± 18 mm^3
3 mpk qw, day 2
  Body Weight: 21.4 ± 0.2 g
  Tumor Volume: 191 ± 17 mm^3
3 mpk qw, day 4
  Body Weight: 21.8 ± 0.8 g
  Tumor Volume: 183 ± 90 mm^3
3 mpk qw, day 7
  Body Weight: 22.0 ± 1.1 g
  Tumor Volume: 218 ± 149 mm^3
3 mpk qw, day 9
  Body Weight: 21.3 ± 0.7 g
  Tumor Volume: 266 ± 142 mm^3
3 mpk qw, day 11
  Body Weight: 21.4 ± 0.5 g
  Tumor Volume: 254 ± 125 mm^3
3 mpk qw, day 14
  Body Weight: 21.0 ± 0.6 g
  Tumor Volume: 306 ± 119 mm^3
10 mpk biw, day 0
  Body Weight: 22.5 ± 1.0 g
  Tumor Volume: 180 ± 21 mm^3
10 mpk biw, day 2
  Body Weight: 21.8 ± 1.2 g
  Tumor Volume: 182 ± 41 mm^3
10 mpk biw, day 4
  Body Weight: 21.8 ± 1.1 g
  Tumor Volume: 58 ± 14 mm^3
10 mpk biw, day 7
  Body Weight: 22.7 ± 0.9 g
  Tumor Volume: 32 ± 7 mm^3
10 mpk biw, day 9
  Body Weight: 22.1 ± 0.9 g
  Tumor Volume: 27 ± 14 mm^3
10 mpk biw, day 11
  Body Weight: 22 ± 1.1 g
  Tumor Volume: 26 ± 13 mm^3
10 mpk biw, day 14
  Body Weight: 22.6 ± 1.0 g
  Tumor Volume: 20 ± 11 mm^3
10 mpk qw, day 0
  Body Weight: 22.6 ± 1.2 g
  Tumor Volume: 179 ± 14 mm^3
10 mpk qw, day 2
  Body Weight: 21.1 ± 1.2 g
  Tumor Volume: 146 ± 19 mm^3
10 mpk qw, day 4
  Body Weight: 22.1 ± 1.2 g
  Tumor Volume: 35 ± 4 mm^3
10 mpk qw, day 7
  Body Weight: 23.2 ± 1.0 g
  Tumor Volume: 25 ± 3 mm^3
10 mpk qw, day 9
  Body Weight: 22.7 ± 1.1 g
  Tumor Volume: 15 ± 8 mm^3
10 mpk qw, day 11
  Body Weight: 23.8 ± 1.3 g
  Tumor Volume: 5 ± 5 mm^3
10 mpk qw, day 14
  Body Weight: 24.8 ± 1.5 g
  Tumor Volume: 5 ± 5 mm^3
HT1080, 10 mg/kg
  Best response at 10 mg/kg: CR
HT1080, 1 mpk, biw, day 14
  TGI: 26.5%
  Tumor Volume: 1650 ± 218 mm^3
HT1080, 1 mpk, qw, day 14
  TGI: 18.4%
  Tumor Volume: 1814 ± 320 mm^3
HT1080, 3 mpk, biw, day 14
  TGI: 108.7%
  Tumor Volume: 3 ± 3 mm^3
HT1080, 3 mpk, qw, day 14
  TGI: 93.7%
  Tumor Volume: 306 ± 119 mm^3
HT1080, 10 mpk, biw, day 14
  TGI: 108.0%
  Tumor Volume: 20 ± 11 mm^3
HT1080, 10 mpk, qw, day 14
  TGI: 108.7%
  Tumor Volume: 5 ± 5 mm^3
HT1080, dose leading to tumor-stasis
  Minimally Effective Dose IV BIW: <3 mg/kg
After 2 weeks, 3 mg/kg biw, 10 mg/kg qw and 10 mg/kg biw
  tumor response: completely regressed
Previously 3 mg/kg biw
  animals with re-growth to 150 mm3 following cessation of dosing: 3/3
Previously 10 mg/kg qw
  animals with re-growth to 150 mm3 following cessation of dosing: 1/3
